Reference: PMC9658513, “Discovery of Compounds That Selectively Repress the Amyloidogenic Processing of the Amyloid Precursor Protein: Design, Synthesis and Pharmacological Evaluation of Diphenylpyrazoles” (International Journal of Molecular Sciences, 2022)
Where two headings read alike, the source gives them in different places.

How the values were obtained:
[1] = system: αCTF (APP carboxy-terminal fragment); test: αCTF level by Western blotting in SY5Y-APP^WT cells; type: cell-based, human; details: for EC (20-fold increase): concentration increasing αCTF 20-fold vs untreated control, SY5Y-APP^WT cells, read-out: αCTF (C20); for C20 for CTFα and AICD: CTFα and AICD together
Procedure, shortened: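 SH-SY5Y cells stably expressing human wild-type APP695 treated with compounds for 24 h at 37 °C. αCTF and AICD measured by Western blot of lysates (10 µg protein, 12% Bis-Tris gels) as band intensity; C20 is concentration raising these fragments 20-fold over control.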

[2] = system: LC3; test: Autophagic flux: LC3-I lipidation into LC3-II by Western blot; type: cell-based; details: Homo sapiens, 24 h, compound at 3 µM, SY5Y-APP^wt cells, vs control
Excerpt: Previous work dedicated to compounds of family C [22] has underlined the effect of our compounds on autophagic flux and the lysosomal degradation pathways. More precisely, the role of the amino side chains and their number was highlighted. Therefore, we assessed whether the activity of compounds involved the modulation of lysosomal activities toward the accumulation of APP-CTFs and AICD. Thus, we studied the effect of a selection of compounds on the autophagic flux, more particularly, we evaluated the effect of compounds 24, 33, 34, 57, 65, 67, 70, and 71 on two markers associated with autophagy: p62 and LC3-I lipidation into LC3-II. To the previous selection of efficient compounds decreasing Aβ1–x production and increasing CTFα and AICD, we added compound 65 with no cytotoxicity at 100 µM. As a comparison, we also selected compound 57 with a hydroxymethyl substituent as a control. In addition to CQ, bafilomycin A, a well-known inhibitor of autophagic flux, was used as a control. Treatment with compounds 67 and 71 induced an increase in p62 expression by 2.5 and 4-fold, respectively, compared to the control condition (Figure 3). […] An increase in the two markers was also observed with compound 57, but to a smaller extent (1.7-fold for p62 and 2-fold for LC3-I/LC3-II).
The human neuroblastoma cell line SY5Y-APP^695WT was maintained in Dulbecco’s modified Eagle medium (DMEM, high glucose, pyruvate—GIBCO, Life Technologies, Carlsbad, CA, USA) supplemented with 10% fetal bovine serum, 2 mM L-glutamine, 1 mM non-essential amino acids and penicillin/streptomycin (GIBCO, Life Technologies, Carlsbad, CA, USA) at 37 °C in a 5% CO2 humidified incubator [36]. For compound treatment, a 10 mM stock solution was diluted in freshly supplemented DMEM medium to obtain the precise final concentration of the drug. Cells were plated at a density of 5 × 10^5 cells per well into 12-well plates and cultured with 1 mL supplemented DMEM cell medium for 24 h before compound exposure. The following day, the cell medium was replaced with fresh medium containing the compounds diluted at the indicated concentrations. Cells were treated for 24 h. At the end of the treatments, the cell medium was collected and kept at −80 °C until use, cells were rinsed once with PBS and extracted in 100 µL of Laemmli buffer (10 mM Tris, 20% glycerol, and 2% sodium dodecyl sulfate) using a cell-scraper. The cell lysate was further sonicated (30 pulses of 0.5 s, 60 Hz) for 5 min. Total protein concentration was determined using the Pierce BCA Protein Assay Kit (Thermo Scientific, Waltham, MA, USA) according to the manufacturer’s instructions. Samples were stored at −80 °C until analysis.
Cell protein lysates were prepared for Western blot analysis by diluting the sample with 1 volume of NuPAGE® lithium dodecyl sulfate (LDS) 2X sample buffer supplemented with 20% NuPAGE® sample reducing agents (Invitrogen). Samples were heated for 10 min at 100 °C. Ten µg of total proteins per well were loaded onto precast 4–12% Criterion XT Bis-Tris polyacrylamide gels (Bio-Rad) and electrophoresis was achieved after applying a tension of 150 V for 90 min using a Criterion electrophoresis cell with the NuPAGE® MOPS SDS running buffer (1X). Proteins were transferred to a nitrocellulose membrane of […] pore size (G&E Healthcare, Madison, WI, USA) using the Criterion blotting system and applying a tension of 100 V for 45 min. To resolve proteins of low molecular weights such as carboxy-terminal fragments of APP, 12% Criterion XT Bis-Tris polyacrylamide gels (Bio-Rad, Hercules, CA, USA) were used, and electrophoresis was performed for 70 min at 150 V in a NuPAGE® MES SDS running buffer (1X). Proteins were transferred to a nitrocellulose membrane of 0.2 µm pore size (G&E Healthcare, Madison, WI, USA) at 100 V for 40 min. Molecular weight calibration was achieved using molecular weight markers (Novex and Magic Marks, Life Technologies, Carlsbad, CA, USA). […]

[3] = system: p62/LC3; test: Ratio between p62 and LC3 expression levels; type: cell-based, human; details: compound at 3 µM, 24 h, SY5Y-APP^wt cells
Excerpt: Compounds from both series were selected to first determine the potential relationship between the repression of Aβ1–x production and the increased expression of LC3 and p62. […] We then also considered the ratio between the p62 and LC3 expression levels.
Figure 3 Effect of compounds 24, 33, 34, 57, 65, 67, 70, and 71 on the autophagic flux in SY5Y-APP^wt cells. […] Cell lysates were immunolabeled with the following antibodies: p62 (a), LC3 (b), and β-actin. Statistical significance was set at * p < 0.05, ** p < […], *[…], **** p < 0.0001, and ns as not significant.

Compound | EC (20-fold increase) ([1]; Homo sapiens) | fold induction at 3 µM [2] | p62/LC3 [3] | C20 for CTFα and AICD [1] | EC (20-fold increase) [1]
CN(C)CCCc1ccc(-c2nn(-c3ccc(CN(C)C)cc3)cc2CN(C)C)cc1 [Compound 24, 3-[4-[4-(Dimethylaminomethyl)-1-[4-(dimethylaminomethyl)phenyl] Pyrazol-3-yl]phenyl]-N,N-dimethyl-propan-1-amine] | 1.6 µM | 3.3 | 0.49 |  | 
Cc1cn(-c2cccc(CO)c2)nc1-c1ccc(CN(C)CCCN(C)C)cc1 [Compound 57, (3-{3-[4-({[3-(Dimethylamino)propyl](methyl)amino}methyl)phenyl]-4-methyl-1H-pyrazol-1-yl}phenyl)methanol] | > 10 µM | 2 | 0.71 |  | 
Cc1cn(-c2cccc(CN3CCN(C)CC3)c2)nc1-c1cccc(CN(C)C)c1 [Compound 65, N,N-dimethyl-1-[3-[4-methyl-1-[3-[(4-methylpiperazin-1-yl)methyl]phenyl]pyrazol-3-yl]phenyl]methanamine] | 1.7 µM | 2.63 | 0.63 |  | 
Cc1cn(-c2cccc(CN(C)C)c2)nc1-c1ccc(CN(C)CCCN(C)C)cc1 [Compound 67, {[4-(1-{3-[(Dimethylamino)methyl]phenyl}-4-methyl-1H-pyrazol-3-yl)phenyl]methyl} [3-(Dimethylamino)propyl]methylamine] | 1.4 µM | 5.2 | 0.51 | around 1 µM | 
Cc1cn(-c2cccc(CN(C)C)c2)nc1-c1cccc(CN(C)CCCN(C)C)c1 [Compound 70, N′-[[3-[1-[3-(Dimethylaminomethyl)phenyl]-4-methyl-pyrazol-3-yl]phenyl] Methyl]-N,N,N′-trimethyl-propane-1,3-diamine] | 1.3 µM | 6 | 0.30 |  | 
Cc1cn(-c2cccc(CN3CCN(C)CC3)c2)nc1-c1cccc(CN(C)CCCN(C)C)c1 [Compound 71, N,N,N′-Trimethyl-N′-[[3-[4-methyl-1-[3-[(4-methylpiperazin-1-yl)methyl]phenyl]pyrazol-3-yl]phenyl]methyl]propane-1,3-diamine] | 0.7 µM | 6.5 | 0.34 | around 1 µM | 
N′-[[4-[4-[3-(Dimethylamino)propyl]-3-[4-[3-(dimethylamino)propyl]phenyl] Pyrazol-1-yl]phenyl]methyl]-N,N,N′-trimethyl-propane-1,3-diamine [Compound 33] |  |  | 0.98 |  | 6.1 µM
